How the values were obtained:
Proteus vulgaris = assay: Antimicrobial activity against Proteus vulgaris CMCC(B) 49001 after 24 hrs by two fold dilution method; type: functional
Candida albicans [1] = assay: Antifungal activity against Candida albicans CMAM 0594 after 48 to 72 hrs by broth microdilution method; type: functional
Candida albicans [2] = assay: Antifungal activity against Candida albicans CMAH 0572 after 48 to 72 hrs by broth microdilution method; type: functional
Staphylococcus aureus [3] = assay: Antibacterial activity against methicillin-resistant Staphylococcus aureus CMAH 0515 after 24 hrs by two fold dilution method; type: functional
[4] = Toxicity in human erythrocytes assessed as haemolysis upto 500 ug/mL; type: cell-based, Erythrocyte; conditions: read-out: Activity
Candida albicans [5] = assay: Antifungal activity against fluconazole-resistant Candida albicans CMAH 0520 after 48 to 72 hrs by broth microdilution method; type: functional
Candida albicans [6] = assay: Antifungal activity against Candida albicans CMAH 0501 after 48 to 72 hrs by broth microdilution method; type: functional
Candida albicans [7] = assay: Antifungal activity against Candida albicans CMAH 0507 after 48 to 72 hrs by broth microdilution method; type: functional
Candida albicans [8] = assay: Antifungal activity against Candida albicans CMAH 0503 after 48 to 72 hrs by broth microdilution method; type: functional
Cryptococcus neoformans = assay: Antifungal activity against Cryptococcus neoformans ATCC 90112 after 48 to 72 hrs by broth microdilution method; type: functional
Pseudomonas aeruginosa = assay: Antimicrobial activity against Pseudomonas aeruginosa ATCC 27853 after 24 hrs by two fold dilution method; type: functional; conditions: ATCC 27853, 24 h
Candida albicans [9] = assay: Antifungal activity against Candida albicans CMAH 0527 after 48 to 72 hrs by broth microdilution method; type: functional
Candida albicans [10] = assay: Antifungal activity against Candida albicans ATCC 10231 after 48 to 72 hrs by broth microdilution method; type: functional
Candida albicans [11] = assay: Antifungal activity against Candida albicans CMAM 0577 after 48 to 72 hrs by broth microdilution method; type: functional
Candida albicans [12] = assay: Antifungal activity against Candida albicans CMAM 0592 after 48 to 72 hrs by broth microdilution method; type: functional
[13] = Toxicity in human erythrocytes assessed as haemolysis upto 4000 ug/mL; type: cell-based, Erythrocyte; conditions: read-out: Activity
Micrococcus luteus = assay: Antimicrobial activity against Micrococcus luteus CMCC(B) 28001 after 24 hrs by two fold dilution method; type: functional
[14] = Toxicity in human erythrocytes assessed as haemolysis upto 30 ug/mL; type: cell-based, Erythrocyte; conditions: read-out: Activity
Klebsiella aerogenes = assay: Antibacterial activity against Enterobacter aerogenes CMCC(B) 45103 after 24 hrs by two fold dilution method; type: functional
Candida albicans [15] = assay: Antifungal activity against fluconazole-resistant Candida albicans CMAM 0597 after 48 to 72 hrs by broth microdilution method; type: functional
Aspergillus sp. = assay: Antifungal activity against Aspergillus sp. after 48 to 72 hrs by broth microdilution method; type: functional
Staphylococcus aureus [16] = assay: Antibacterial activity against methicillin-resistant Staphylococcus aureus CMAH 0504 after 24 hrs by two fold dilution method; type: functional
Rhodotorula glutinis = assay: Antimicrobial activity against Rhodotorula glutinis SYM 2209 after 48 to 72 hrs by broth microdilution method; type: functional
Escherichia coli = assay: Antimicrobial activity against Escherichia coli ATCC 25922 after 24 hrs by two fold dilution method; type: functional; conditions: ATCC 25922, 24 h
Bacillus subtilis = assay: Antimicrobial activity against Bacillus subtilis after 24 hrs by two fold dilution method; type: functional
Saccharomyces cerevisiae = assay: Antimicrobial activity against Saccharomyces cerevisiae after 48 to 72 hrs by broth microdilution method; type: functional
Candida albicans [17] = assay: Antifungal activity against Candida albicans CMAH 0511 after 48 to 72 hrs by broth microdilution method; type: functional
Staphylococcus aureus [18] = assay: Antibacterial activity against methicillin-resistant Staphylococcus aureus CMAH 0430 after 24 hrs by two fold dilution method; type: functional
Staphylococcus aureus [19] = assay: Antibacterial activity against methicillin-susceptible Staphylococcus aureus ATCC 25923 after 24 hrs by two fold dilution method; type: functional; conditions: ATCC 25923, 24 h

COC(=O)[C@H](Cc1c[nH]c2ccccc12)NC(=O)c1ccccn1
32 µg/mL: MIC (Proteus vulgaris) | MFC (Candida albicans [1]) | MIC (Candida albicans [2]) | MFC (Candida albicans [5]) | MFC (Candida albicans [8]) | MIC (Pseudomonas aeruginosa) | MFC (Candida albicans [9]) | MIC (Candida albicans [11]) | MFC (Candida albicans [15])
8 µg/mL: MIC (Candida albicans [1]) | MIC (Candida albicans [5]) | MIC (Candida albicans [7]) | MIC (Candida albicans [8]) | MIC (Candida albicans [10]) | MBC (Micrococcus luteus) | MIC (Candida albicans [15]) | MIC50 (Aspergillus sp.; Aspergillus sp.) | MBC (Staphylococcus aureus [16]) | MFC (Saccharomyces cerevisiae) | MBC (Staphylococcus aureus [19])
1 µg/mL: MIC (Staphylococcus aureus [3]) | MIC (Cryptococcus neoformans) | MIC (Rhodotorula glutinis) | MIC (Staphylococcus aureus [18]) | MIC (Staphylococcus aureus [19])
2 µg/mL: MFC (Cryptococcus neoformans) | MIC (Staphylococcus aureus [16]) | MFC (Rhodotorula glutinis) | MIC (Candida albicans [17])
50%: hemolysis [14]
>128 µg/mL: MFC90 (Aspergillus sp.)
4 µg/mL: MBC (Staphylococcus aureus [3]) | MFC (Candida albicans [6]) | MFC (Candida albicans [10]) | MIC (Candida albicans [12]) | MIC (Micrococcus luteus) | MIC (Bacillus subtilis) | MIC (Saccharomyces cerevisiae) | MFC (Candida albicans [17]) | MBC (Staphylococcus aureus [18])
16 µg/mL: MIC (Candida albicans [6]) | MFC (Candida albicans [7]) | MIC (Candida albicans [9]) | MFC (Candida albicans [12]) | MBC (Bacillus subtilis)
64 µg/mL: MFC (Candida albicans [2]) | MFC (Candida albicans [11]) | MIC (Klebsiella aerogenes) | MFC50 (Aspergillus sp.) | MIC90 (Aspergillus sp.; Aspergillus sp.) | MIC (Escherichia coli)
2.52%: hemolysis [4]
> 128 µg/mL: MBC (Proteus vulgaris) | MBC (Pseudomonas aeruginosa)
33.6 µg/mL: MIC (Aspergillus sp.; Aspergillus sp.)
6%: hemolysis [13]
